Laboratory results from PMC6557688 (FEBS letters, 2019).

Molecular target: recombinant Nudt7 (Mus musculus, UniProt Q99P30)
Test: CoA diphosphohydrolase assay, protein curves
Format: biochemical
Conditions: MgCl2 or MnCl2

Sequence of recombinant Nudt7 (Q99P30 whole entry): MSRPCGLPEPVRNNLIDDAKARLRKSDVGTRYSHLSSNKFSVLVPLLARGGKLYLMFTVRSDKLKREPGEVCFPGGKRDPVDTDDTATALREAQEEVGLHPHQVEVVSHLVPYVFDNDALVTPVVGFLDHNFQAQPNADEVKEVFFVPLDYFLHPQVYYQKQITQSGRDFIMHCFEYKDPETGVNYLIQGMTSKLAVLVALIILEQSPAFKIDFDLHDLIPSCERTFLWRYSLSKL

SMILES: CC(C)(COP(=O)(O)OP(=O)(O)OC[C@H]1O[C@@H](n2cnc3c(N)ncnc32)[C@H](O)[C@@H]1OP(=O)(O)O)[C@@H](O)C(=O)NCCC(=O)NCCS [Free CoA]
- CoA diphosphohydrolase assay, protein curves: the specific activity of Nudt8 against free CoA was comparable to that of Nudt7
